The values below come from BindingDB's records for patent US11149040 (Amgen, 2021).

For the experiment, the target named is T1, Apelin receptor (Homo sapiens, UniProt P35414).
T1 sequence (P35414 whole entry): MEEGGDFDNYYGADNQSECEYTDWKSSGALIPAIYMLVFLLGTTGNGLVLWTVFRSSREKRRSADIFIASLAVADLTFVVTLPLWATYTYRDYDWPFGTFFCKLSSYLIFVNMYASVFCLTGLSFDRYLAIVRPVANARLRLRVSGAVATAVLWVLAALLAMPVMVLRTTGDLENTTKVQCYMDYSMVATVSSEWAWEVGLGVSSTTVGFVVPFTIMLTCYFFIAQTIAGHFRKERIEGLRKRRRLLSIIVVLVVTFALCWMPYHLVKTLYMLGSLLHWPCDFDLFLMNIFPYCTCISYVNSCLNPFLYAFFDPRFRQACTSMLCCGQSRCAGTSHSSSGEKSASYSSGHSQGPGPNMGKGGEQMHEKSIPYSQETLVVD
The experiment in a line: [35S]GTPgammaS Binding. As to the method:
The human APJ receptor was cloned by polymerase chain reaction and the gene encoding the receptor was subcloned in pFLAG-CMV -3 expression vector (Sigma, Saint Louis, Mo. USA) in-house at Amgen. A GTPγS binding assay was performed on membranes prepared from CHO cells stably expressing human APJ receptor. The optimum experimental conditions for the concentrations of GDP, MgCl2, and NaCl in the assay buffer were initially determined. The assay was performed in 9 μL assay buffer [20 mM HEPES, pH 7.5, 5 mM MgCl2, 100 mM NaCl and 0.1% (w/v) BSA], 1 μL of diluted test compound (starting with 0.75 mM, 2-fold serial dilution with DMSO, total 22 points), 10 μL of 18 μM GDP (final concentration of 3 μM GDP), 20 μL of […] membrane protein expressing human APJ receptor captured with WGA PS beads (final concentration of 5 μg per well), and 20 μL of 0.3 nM [35S]GTPγS (final concentration is 0.1 nM [35S]GTPγS)(Perkin Elmer Life and Analytical Sciences, Waltham USA). […] Incubation was at RT for 90 min and the microplate was read using a ViewLux ultra HTS Microplate Imager (PerkinElmer, Inc.). All the results presented are means of several independent experiments and analyzed by non-linear regression methods using the commercially available program Prism (GraphPad, San Diego, Calif.) providing the EC50 values detailed in Table 13.

`Cc1cnc([C@H](OC(C)C)[C@H](C)S(=O)(=O)Nc2nnc3n2-c2c(F)cccc2/C=C\CC3)nc1` (single isomer, unassigned) [US11149040, Example 49.0]: the midpoint of the response, the EC50, lay at 98 nM.
